Consider 53 compounds from patent US10703764B2, “Benzopiperazine compositions as BET bromodomain inhibitors” (FORMA Therapeutics, Inc., priority 2013, dated 2020).

The target of experiment [1] is T1, BRD4 BD2 (Homo sapiens, UniProt O60885).
T1 construct: made in house
Description: AlphaScreen binding assay, BRD4 Bromodomain 2. The method, boiled down:
(§1)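 Compound dilution series were mixed with His-tagged BRD4 bromodomain and biotinylated tetra-acetylated H4 (1-21) peptide at pH 7.3 (BD1 and peptide at 50 nM, BD2 and peptide at 100 nM). Donor and acceptor beads were then added, and plates were equilibrated at least 1 h before reading. IC50 values were fitted with a four-parameter logistic model.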

The target of experiment [2] is T2, BRD4 BD1 (Homo sapiens, UniProt O60885).
T2 construct: made in house
Description: AlphaScreen binding assay, BRD4 Bromodomain 1. The method, boiled down:
as §1

Consider `CC(=O)N1c2ccccc2N(C(=O)Cn2cnc3ccccc32)C[C@@H]1C` [Example I-766], for which the values for the IC50 in experiment [1] and in experiment [2] were more than 500 nM and more than 10000 nM, respectively.
As for `CC(=O)N1c2ccccc2N(C(=O)CN2CCS(=O)(=O)CC2)C[C@@H]1C` [Example I-767], the concentration for half-maximal inhibition (IC50) in experiment [1] is more than 500 nM; in experiment [2], more than 10000 nM.
The matching figures for `CC(=O)N1c2ccccc2N(C(=O)c2c(C)noc2C)C[C@@H]1C` [Example I-768]: more than 500 nM and more than 10000 nM.
Turning to `CC(=O)N1c2ccccc2N(C(=O)Cc2nc(-c3ccccc3)oc2C)C[C@@H]1C` [Example I-769], the IC50 in experiment [1] is more than 500 nM; in experiment [2] it was more than 10000 nM.
As for `CC(=O)N1c2ccccc2N(C(=O)c2cccc3[nH]ccc23)CC1C` (stereo not shown) [Example I-770], the figures for the IC50 in experiment [1] and in experiment [2] were more than 500 nM and more than 10000 nM, respectively.
`CC(=O)N1c2ccccc2N(C(=O)c2cc3ccccn3n2)C[C@@H]1C` [Example I-771]: the IC50 in experiment [1] was more than 500 nM; in experiment [2], more than 10000 nM.
As to `CC(=O)N1c2ccccc2N(C(=O)COCC(C)C)C[C@@H]1C` [Example I-772], the IC50 is more than 500 nM in experiment [1] and more than 10000 nM in experiment [2].
In the case of `CC(=O)N1c2ccccc2N(C(=O)c2cnn3c2OCCC3)C[C@@H]1C` [Example I-773], the half-maximal inhibitory concentration (IC50) was more than 500 nM in experiment [1] and more than 10000 nM in experiment [2].
`CC(=O)N1c2ccccc2N(C(=O)c2cc3n(n2)CCC3)C[C@@H]1C` [Example I-774]: the results for the IC50 in experiment [1] and in experiment [2] were more than 500 nM and more than 10000 nM, respectively.
`CC(=O)N1c2ccccc2N(C(=O)c2cc3ccncc3s2)C[C@@H]1C` [Example I-775]: the IC50 in experiment [1] is more than 500 nM; in experiment [2], more than 10000 nM.
`CC(=O)N1c2ccccc2N(C(=O)c2ccc3nccn3c2)C[C@@H]1C` [Example I-776]: the IC50 in experiment [1] was more than 500 nM; in experiment [2], more than 10000 nM.
Regarding `CC(=O)N1c2ccccc2N(C(=O)c2cc3ccncc3o2)C[C@@H]1C` [Example I-777], the IC50 in experiment [1] is more than 500 nM; in experiment [2] it was more than 10000 nM.
Regarding `CC(=O)N1c2ccc(-c3ccc(S(C)(=O)=O)cc3)cc2N(C(=O)c2cn3ccncc3n2)C[C@@H]1C` [Example I-779], the figures for the IC50 in experiment [1] and in experiment [2] were more than 500 nM and more than 10000 nM, respectively.
For `CC(=O)N1c2ccc(-c3ccc(S(C)(=O)=O)cc3)cc2N(C(=O)c2ccccn2)C[C@@H]1C` [Example I-782], the IC50 in experiment [1] was 50 to 500 nM; in experiment [2] it was more than 10000 nM.
Consider `CC(=O)N1c2ccc(-c3ccc(S(C)(=O)=O)cc3)cc2N(C(=O)c2csnn2)C[C@@H]1C` [Example I-783], for which the values for the IC50 in experiment [1] and in experiment [2] were more than 500 nM and 1000 to 10000 nM, respectively.
Take `CC(=O)N1c2ccc(-c3ccc(S(C)(=O)=O)cc3)cc2N(C(=O)c2nccn2C)C[C@@H]1C` [Example I-784]: the concentration for half-maximal inhibition (IC50) in experiment [1] is more than 500 nM; in experiment [2] it was more than 10000 nM.
In the case of `CC(=O)N1c2ccc(-c3ccc(S(C)(=O)=O)cc3)cc2N(C(=O)c2cc3cc(Cl)ccc3[nH]2)CC1C` (stereo not shown) [Example I-785], the IC50 in experiment [1] lay in the range of 50 to 500 nM; in experiment [2], 1000 to 10000 nM.
For the compound `CC(=O)N1c2ccc(-c3ccc(S(C)(=O)=O)cc3)cc2N(C(=O)c2cc3ccc(Cl)cc3[nH]2)CC1C` (stereo not shown) [Example I-787], the IC50 in experiment [1] fell in the range of 50 to 500 nM; in experiment [2] it was 1000 to 10000 nM.
In the case of `CC(=O)N1c2ccc(-c3ccc(S(C)(=O)=O)cc3)cc2N(C(=O)c2cc3cc(OC(F)(F)F)ccc3[nH]2)CC1C` (stereo not shown) [Example I-788], the IC50 was more than 500 nM in experiment [1] and more than 10000 nM in experiment [2].
As to `CC(=O)N1c2ccc(-c3ccc(S(C)(=O)=O)cc3)cc2N(C(=O)c2oc3ccccc3c2-c2ccccc2)C[C@@H]1C` [Example I-790], the IC50 in experiment [1] is more than 500 nM; in experiment [2], more than 10000 nM.
On to `CC(=O)N1c2ccc(-c3ccc(-c4ccccc4)cc3)cc2N(C(=O)COc2ccccc2)C[C@@H]1C` [Example I-797], for which the IC50 was more than 500 nM in experiment [1] and more than 10000 nM in experiment [2].
Take `CC(=O)N1c2ccc(-c3cccc(C(=O)NC4CC4)c3)cc2N(C(=O)c2ccco2)C[C@@H]1C` [Example I-802]: the figures for the IC50 in experiment [1] and in experiment [2] were less than 50 nM and 1000 to 10000 nM, respectively.
`CC(=O)N1c2ccc(-c3ccc(-n4cccn4)cc3)cc2N(C(=O)c2ccco2)C[C@@H]1C` [Example I-803]: the half-inhibitory concentration (IC50) in experiment [1] fell in the range of 50 to 500 nM; in experiment [2], 1000 to 10000 nM.
The matching figures for `CC(=O)N1c2ccc(-c3ccc(Cl)cc3)cc2N(C(=O)c2ccco2)C[C@@H]1C` [Example I-805]: 50 to 500 nM and 1000 to 10000 nM.
For `CC(=O)N1c2ccc(-c3ccc(OC(F)(F)F)cc3)cc2N(C(=O)c2ccco2)C[C@@H]1C` [Example I-808], the IC50 in experiment [1] was 50 to 500 nM; in experiment [2] it was 1000 to 10000 nM.
Regarding `CC(=O)N1c2ccc(-c3ccc(C#N)cc3)cc2N(C(=O)c2ccco2)C[C@@H]1C` [Example I-811], the IC50 in experiment [1] is less than 50 nM; in experiment [2] it was 1000 to 10000 nM.
On to `CC(=O)N1c2ccc(-c3cccc(C#N)c3)cc2N(C(=O)c2ccco2)C[C@@H]1C` [Example I-812], for which the IC50 in experiment [1] was less than 50 nM; in experiment [2], 1000 to 10000 nM.
`CC(=O)N1c2ccc(-c3ccc(Oc4ccccc4)cc3)cc2N(C(=O)c2ccco2)C[C@@H]1C` [Example I-813]: the IC50 was 50 to 500 nM in experiment [1] and 1000 to 10000 nM in experiment [2].
For the compound `CC(=O)N1c2ccc(-c3ccc(-n4cccn4)c(F)c3)cc2N(C(=O)c2ccco2)C[C@@H]1C` [Example I-814], the IC50 in experiment [1] was less than 50 nM; in experiment [2], 1000 to 10000 nM.
`CC(=O)N1c2ccc(-c3ccc(C(F)(F)F)cc3)cc2N(C(=O)c2ccco2)C[C@@H]1C` [Example I-815]: the IC50 fell in the range of 50 to 500 nM in experiment [1] and 1000 to 10000 nM in experiment [2].
Consider `CC(=O)N1c2ccc(-c3c(C)noc3C)cc2N(C(=O)c2ccco2)C[C@@H]1C` [Example I-816], for which the IC50 in experiment [1] is more than 500 nM; in experiment [2] it was more than 10000 nM.
In the case of `CC(=O)N1c2ccc(-c3ccc(F)cc3)cc2N(C(=O)c2ccco2)C[C@@H]1C` [Example I-818], the IC50 in experiment [1] is less than 50 nM; in experiment [2], 1000 to 10000 nM.
The matching figures for `CC(=O)N1c2ccc(-c3cccnc3)cc2N(C(=O)c2ccco2)C[C@@H]1C` [Example I-819]: 50 to 500 nM and 1000 to 10000 nM.
On to `CC(=O)N1c2ccc(-c3ccncc3)cc2N(C(=O)c2ccco2)C[C@@H]1C` [Example I-820], for which the IC50 in experiment [1] was less than 50 nM; in experiment [2] it was 1000 to 10000 nM.
In the case of `CC(=O)N1c2ccc(-c3cncnc3)cc2N(C(=O)c2ccco2)C[C@@H]1C` [Example I-821], the values for the IC50 in experiment [1] and in experiment [2] were 50 to 500 nM and more than 10000 nM, respectively.
The like results for `CC(=O)N1c2ccc(-c3cnc4ccccc4c3)cc2N(C(=O)c2ccco2)C[C@@H]1C` [Example I-823] were, in that order, 50 to 500 nM and 1000 to 10000 nM.
For `COc1cc(F)ccc1-c1ccc2c(c1)N(C(=O)c1ccco1)C[C@H](C)N2C(C)=O` [Example I-826], the results for the IC50 in experiment [1] and in experiment [2] were more than 500 nM and more than 10000 nM, respectively.
The like results for `CC(=O)N1c2ccc(-c3ccccc3NS(C)(=O)=O)cc2N(C(=O)c2ccco2)C[C@@H]1C` [Example I-827] were, in that order, more than 500 nM and more than 10000 nM.
Take `COc1cc(-c2ccc3c(c2)N(C(=O)c2ccco2)C[C@H](C)N3C(C)=O)ccc1F` [Example I-828]: the figures for the IC50 in experiment [1] and in experiment [2] were 50 to 500 nM and 1000 to 10000 nM, respectively.
For `CC(=O)N1c2ccc(-c3ccc(F)c(C(=O)NC(C)C)c3)cc2N(C(=O)c2ccco2)C[C@@H]1C` [Example I-829], the figures for the concentration for half-maximal inhibition (IC50) in experiment [1] and in experiment [2] were less than 50 nM and 1000 to 10000 nM, respectively.
The matching figures for `CC(=O)N1c2ccc(-c3cncc(F)c3)cc2N(C(=O)c2ccco2)C[C@@H]1C` [Example I-830]: 50 to 500 nM and 1000 to 10000 nM.
The like results for `CC(=O)N1c2ccc(-c3cnc(N(C)C)nc3)cc2N(C(=O)c2ccco2)C[C@@H]1C` [Example I-831] were, in that order, less than 50 nM and 1000 to 10000 nM.
As for `CC(=O)N1c2ccc(-c3cncc(Cl)c3)cc2N(C(=O)c2ccco2)C[C@@H]1C` [Example I-832], the IC50 is 50 to 500 nM in experiment [1] and 1000 to 10000 nM in experiment [2].
For `COc1ccc(-c2ccc3c(c2)N(C(=O)c2ccco2)C[C@H](C)N3C(C)=O)cn1` [Example I-833], the results for the IC50 in experiment [1] and in experiment [2] were 50 to 500 nM and 1000 to 10000 nM, respectively.
In the case of `COc1ncc(-c2ccc3c(c2)N(C(=O)c2ccco2)C[C@H](C)N3C(C)=O)cn1` [Example I-834], the IC50 fell in the range of 50 to 500 nM in experiment [1] and 1000 to 10000 nM in experiment [2].
The matching figures for `COc1cncc(-c2ccc3c(c2)N(C(=O)c2ccco2)C[C@H](C)N3C(C)=O)c1` [Example I-835]: 50 to 500 nM and 1000 to 10000 nM.
Turning to `CNC(=O)c1ccc(-c2ccc3c(c2)N(C(=O)c2ccco2)C[C@H](C)N3C(C)=O)cn1` [Example I-836], the half-maximal inhibitory concentration (IC50) was less than 50 nM in experiment [1] and 1000 to 10000 nM in experiment [2].
Regarding `CC(=O)N1c2ccc(-c3ccc(C(F)(F)F)nc3)cc2N(C(=O)c2ccco2)C[C@@H]1C` [Example I-837], the IC50 in experiment [1] lay in the range of 50 to 500 nM; in experiment [2], 1000 to 10000 nM.
Take `CC(=O)N1c2ccc(-c3cc4ccccc4n3C)cc2N(C(=O)c2ccco2)C[C@@H]1C` [Example I-839]: the IC50 in experiment [1] was more than 500 nM; in experiment [2], more than 10000 nM.
For `CC(=O)N1c2ccc(-c3ccc4cn(C)nc4c3)cc2N(C(=O)c2ccco2)C[C@@H]1C` [Example I-840], the values for the IC50 in experiment [1] and in experiment [2] were 50 to 500 nM and 1000 to 10000 nM, respectively.
In the case of `CC(=O)N1c2ccc(-c3cccc4cnn(C)c34)cc2N(C(=O)c2ccco2)C[C@@H]1C` [Example I-842], the half-maximal inhibitory concentration (IC50) is more than 500 nM in experiment [1] and more than 10000 nM in experiment [2].
The like results for `CC(=O)N1c2ccc(-c3cccc4[nH]ccc34)cc2N(C(=O)c2ccco2)CC1C` (stereo not shown) [Example I-846] were, in that order, 50 to 500 nM and 1000 to 10000 nM.
As to `CC(=O)N1c2ccc(-c3cccc(S(C)(=O)=O)c3)cc2N(C(=O)c2ccco2)C[C@@H]1C` [Example I-847], the figures for the concentration for half-maximal inhibition (IC50) in experiment [1] and in experiment [2] were 50 to 500 nM and 1000 to 10000 nM, respectively.
